Test results: patent publication US8846699B2, “Quinazoline derivatives as a multiplex inhibitor and method for the preparation thereof” (Hanmi Pharm. Co., Ltd., priority 2005, dated 2014)

Experiments:
VEGFR2 (KDR) = VEGFR2 (KDR) (Homo sapiens (Human), UniProt P35968); test: VEGFR2 (KDR) enzyme assay, fluorescence polarization; format: biochemical; details: 5 μM ATP, poly(Glu, Tyr) substrate
How it was run: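 Autophosphorylation read by fluorescence polarization: VEGFR2 (Proquinase) at 200 ng/10 μl with 5 μM ATP and 10 ng/ml poly(Glu,Tyr) 4:1, in 20 mM HEPES pH 7.4, 5 mM MgCl2, 2 mM MnCl2, 50 μM Na3VO4. Reaction 1 h at room temperature, EDTA stop, then anti-phosphotyrosine antibody/tracer for 30 min in the dark.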

[1] = test system: breast cancer cell line, SK-Br3; test: Inhibitory effect on growth of cancer cell line SK-Br3, SRB; format: cell-based; details: Homo sapiens, SK-BR-3, 72 h, overexpressed EGFR2 (HER-2)
How it was run: (§1)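 Cells were cultured in DMEM with 10% FBS. Compounds were applied at 10 μM with 10-fold serial dilution to 10^−4, DMSO <1%, for 72 h at 37 °C. Cells were then TCA-fixed and stained with 0.4% SRB, and absorbance was read at 570 nm after solubilisation in 10 mM Tris base.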

EGFR1 (HER-1) = EGFR1 (HER-1) (Homo sapiens (Human), UniProt P00533); test: EGFR1 (HER-1) enzyme assay, fluorescence polarization; format: biochemical; details: 100 μM ATP, poly(Glu, Tyr) substrate
[2] = test system: colon and rectal cancer cell line, SW-620; test: Inhibitory effect on growth of cancer cell line SW-620, SRB; format: cell-based; details: Homo sapiens, 72 h, not having overexpressed EGFR and EGFR2
How it was run: as §1

[3] = test system: skin cancer cell line, A431; test: Inhibitory effect on growth of cancer cell line A431, SRB; format: cell-based; details: Homo sapiens, A-431, 72 h, overexpressed EGFR1 (HER-1)
How it was run: as §1

[4] = test system: Human Umbilical Vein Endothelial Cell (HUVEC); test: Inhibitory effect on growth of human umbilical vein endothelial cell (HUVEC), MTS; format: cell-based; details: Homo sapiens, 96 h, 10 ng/ml VEGF, absorbance 490 nm

Chain of VEGFR2 (KDR) (P35968 20-1356): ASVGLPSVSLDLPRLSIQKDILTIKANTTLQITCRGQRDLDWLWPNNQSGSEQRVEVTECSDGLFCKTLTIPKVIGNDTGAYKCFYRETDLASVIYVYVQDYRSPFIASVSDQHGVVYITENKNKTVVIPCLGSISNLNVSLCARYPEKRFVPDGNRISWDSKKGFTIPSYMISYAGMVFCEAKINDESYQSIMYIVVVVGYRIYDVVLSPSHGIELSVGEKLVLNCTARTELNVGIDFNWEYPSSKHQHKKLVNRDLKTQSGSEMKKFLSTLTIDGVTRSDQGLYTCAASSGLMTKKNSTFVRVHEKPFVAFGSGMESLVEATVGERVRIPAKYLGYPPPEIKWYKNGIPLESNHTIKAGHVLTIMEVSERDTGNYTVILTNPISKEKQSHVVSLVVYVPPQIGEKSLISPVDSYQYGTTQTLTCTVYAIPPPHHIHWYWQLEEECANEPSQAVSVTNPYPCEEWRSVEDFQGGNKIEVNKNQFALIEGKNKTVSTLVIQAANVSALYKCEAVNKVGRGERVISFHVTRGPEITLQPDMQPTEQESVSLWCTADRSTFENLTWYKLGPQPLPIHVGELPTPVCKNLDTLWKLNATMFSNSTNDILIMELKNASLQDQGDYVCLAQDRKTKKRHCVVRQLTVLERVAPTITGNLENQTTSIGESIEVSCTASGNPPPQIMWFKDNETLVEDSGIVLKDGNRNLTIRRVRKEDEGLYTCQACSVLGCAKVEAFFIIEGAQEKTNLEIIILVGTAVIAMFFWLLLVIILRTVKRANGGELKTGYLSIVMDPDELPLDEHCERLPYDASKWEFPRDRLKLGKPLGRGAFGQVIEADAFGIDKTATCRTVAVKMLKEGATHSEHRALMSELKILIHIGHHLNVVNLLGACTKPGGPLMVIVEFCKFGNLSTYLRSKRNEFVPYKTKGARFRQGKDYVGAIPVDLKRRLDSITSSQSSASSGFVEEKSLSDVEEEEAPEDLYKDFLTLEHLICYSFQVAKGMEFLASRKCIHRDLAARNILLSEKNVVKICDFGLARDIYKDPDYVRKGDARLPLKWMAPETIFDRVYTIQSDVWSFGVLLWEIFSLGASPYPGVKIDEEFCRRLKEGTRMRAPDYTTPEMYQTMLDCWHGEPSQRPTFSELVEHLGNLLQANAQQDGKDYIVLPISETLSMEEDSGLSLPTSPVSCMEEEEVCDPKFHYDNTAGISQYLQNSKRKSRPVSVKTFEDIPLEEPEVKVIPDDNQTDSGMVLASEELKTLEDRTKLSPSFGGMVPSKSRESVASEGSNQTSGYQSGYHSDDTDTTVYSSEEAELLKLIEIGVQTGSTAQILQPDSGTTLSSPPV
Chain of EGFR1 (HER-1) (P00533 25-1210): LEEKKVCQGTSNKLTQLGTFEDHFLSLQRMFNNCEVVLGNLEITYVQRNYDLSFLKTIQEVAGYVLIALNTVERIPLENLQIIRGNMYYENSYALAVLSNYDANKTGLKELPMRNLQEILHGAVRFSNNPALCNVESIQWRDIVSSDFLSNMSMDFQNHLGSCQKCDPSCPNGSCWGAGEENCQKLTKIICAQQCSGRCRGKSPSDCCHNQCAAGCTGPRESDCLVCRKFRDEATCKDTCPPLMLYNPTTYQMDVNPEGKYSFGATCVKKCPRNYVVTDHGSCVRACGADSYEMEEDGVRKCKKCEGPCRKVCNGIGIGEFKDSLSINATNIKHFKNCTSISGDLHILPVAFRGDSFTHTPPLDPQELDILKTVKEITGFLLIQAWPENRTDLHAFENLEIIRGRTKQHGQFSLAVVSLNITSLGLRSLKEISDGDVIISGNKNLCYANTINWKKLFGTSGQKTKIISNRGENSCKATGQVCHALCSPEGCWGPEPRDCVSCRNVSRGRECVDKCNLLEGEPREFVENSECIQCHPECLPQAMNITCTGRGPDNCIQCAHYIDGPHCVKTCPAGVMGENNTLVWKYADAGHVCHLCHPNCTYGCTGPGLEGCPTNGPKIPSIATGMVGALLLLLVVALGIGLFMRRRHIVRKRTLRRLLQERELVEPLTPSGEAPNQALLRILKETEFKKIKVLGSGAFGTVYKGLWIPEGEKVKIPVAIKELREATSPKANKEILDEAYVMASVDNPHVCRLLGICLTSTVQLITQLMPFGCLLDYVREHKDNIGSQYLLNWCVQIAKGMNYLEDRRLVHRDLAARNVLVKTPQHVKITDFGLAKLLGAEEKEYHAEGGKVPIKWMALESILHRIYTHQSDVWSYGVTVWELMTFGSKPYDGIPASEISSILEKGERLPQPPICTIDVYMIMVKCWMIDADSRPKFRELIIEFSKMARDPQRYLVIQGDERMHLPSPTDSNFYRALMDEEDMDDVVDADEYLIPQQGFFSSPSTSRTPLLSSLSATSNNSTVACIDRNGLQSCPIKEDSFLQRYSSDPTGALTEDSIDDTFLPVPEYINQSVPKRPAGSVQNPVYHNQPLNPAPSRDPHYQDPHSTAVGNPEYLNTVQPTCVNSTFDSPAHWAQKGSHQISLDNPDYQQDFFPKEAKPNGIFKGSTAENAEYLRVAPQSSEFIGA

| Compound | IC50 (VEGFR2 (KDR)) [nM] | IC50 [1] [nM] | IC50 (EGFR1 (HER-1)) [nM] | IC50 [2] [nM] | IC50 [3] [nM] | IC50 [4] [nM] |
| --- | --- | --- | --- | --- | --- | --- |
| C=CC(=O)Nc1cc2c(Nc3cc(Cl)c(Cl)cc3Cl)ncnc2cc1OCCNC(C)=O [Example 122, N-[7-(2-acetylamino-ethoxy)-4-(2,4,5-trichloro-phenylamino)-quinazolin-6-yl]-acrylamide] | 789 | 1020 | 876 | 2320 | 1030 | 913 |
| C=CC(=O)Nc1cc2c(Nc3c(F)cc(Br)cc3F)ncnc2cc1OCCNC(=O)CN(C)C [Example 123, N-[4-(4-bromo-2,6-difluorophenylamino)-7-{2-[2-(dimethylamino)-acetamido]-ethoxy}-quinazolin-6-yl]-acrylamide] | 268 | 126 | 175 | 10000 | 181 | 328 |
| C=CC(=O)Nc1cc2c(Nc3ccc(Br)c(F)c3F)ncnc2cc1OCCNC(=O)CN(C)C [Example 124, N-{4-(4-bromo-2,3-difluoro-phenylamino)-7-[2-(2-dimethylamino-acetylamino)-ethoxy]-quinazolin-6-yl}-acrylamide] | 136 | 60 | 18 | 2680 | 19 | 268 |
| C=CC(=O)Nc1cc2c(Nc3ccc(Br)c(F)c3F)ncnc2cc1OCCNC(=O)CCN(CC)CC [Example 125, N-{4-(4-bromo-2,3-difluoro-phenylamino)-7-[2-(3-diethylamino-propionylamino)-ethoxy]-quinazolin-6-yl}-acrylamide] | 218 | 242 | 19 | 2980 | 22 | 657 |
| C=CC(=O)Nc1cc2c(Nc3ccc(Br)c(F)c3F)ncnc2cc1OCCNC(=O)CCN1CCCCC1 [Example 126, N-{4-(4-bromo-2,3-difluoro-phenylamino)-7-[2-(3-piperidin-1-yl-propionylamino)-ethoxy]-quinazolin-6-yl}-acrylamide] | 140 | 1370 | 894 | 7530 | 1250 | 286 |
| C=CC(=O)Nc1cc2c(Nc3ccc(Cl)nc3)ncnc2cc1OCCNC(C)=O [Example 128, N-[7-(2-acetylamino-ethoxy)-4-(6-chloro-pyridin-3-ylamino)-quinazolin-6-yl]-acrylamide] | 823 | 95 | 65 | 10000 | 68 | 945 |
| C=CC(=O)Nc1cc2c(Nc3cc(OC)c(Cl)cc3F)ncnc2cc1OCCNC(C)=O [Example 129, N-[7-(2-acetylamino-ethoxy)-4-(4-chloro-2-fluoro-5-methoxy-phenylamino)-quinazolin-6-yl]-acrylamide] | 357 | 106 | 80 | 721 | 82 | 350 |
| C=CC(=O)Nc1cc2c(Nc3ccc(OCc4cccnc4)c(Cl)c3)ncnc2cc1OCCNC(C)=O [Example 130, N-{7-(2-acetylamino-ethoxy)-4-[3-chloro-4-(pyridin-3-ylmethoxy)-phenylamino]-quinazolin-6-yl}-acrylamide] | 853 | 987 | 796 | 5530 | 789 | 964 |
| C=CC(=O)Nc1cc2c(Nc3cc(Cl)c(Br)cc3F)ncnc2cc1OCCNC(C)=O [Example 133, N-[7-(2-acetylamino-ethoxy)-4-(4-bromo-5-chloro-2-fluoro-phenylamino)-quinazolin-6-yl]-acrylamide] | 419 | 64 | 15 | 2320 | 17 | 429 |
| C=CC(=O)Nc1cc2c(Nc3cc(Cl)c(Br)cc3F)ncnc2cc1OCCNC(=O)CC [Example 134, N-[4-(4-bromo-5-chloro-2-fluoro-phenylamino)-7-(2-propionylamino-ethoxy)-quinazolin-6-yl]-acrylamide] | 172 | 62 | 13 | 9590 | 18 | 1060 |
